Laboratory results as given in patent publication US20260027068A1, “METHODS OF ADM[…]-KETAMINE” (Perception Neuroscience, Inc., priority 2022, published 2026).

Tested on: subjects with TRD
Assay: Adverse events (TEAEs, SAEs) in the TRD study
Type: in vivo, human
Conditions: for Number of subjects with TEAE, Mild / Number of subjects with TEAE, Moderate / Number of subjects with TEAE, Severe / Percent of subjects with TEAE, Mild / Percent of subjects with TEAE, Moderate / Percent of subjects with TEAE, Severe: maximum severity
Excerpt: The definitions of an AE and SAE can be found in Section F. AEs were reported by the subject (or, when appropriate, by a caregiver, surrogate, or the subject's legally authorized representative). The Investigator and any designees were responsible for detecting, documenting, and recording events that meet the definition of an AE or SAE and remained responsible for following up AEs that were serious, considered related to the study treatment or study procedures, or that caused the subject to discontinue from the study.
All AEs were collected from the signing of the ICF until the second follow-up visit (Day 15) at the time points specified in the Schedule of Activities (Section C). Medical occurrences that began before the start of study treatment but after obtaining informed consent were recorded on the Medical History/Current Medical Conditions section of the CRF, not the AE section. All SAEs were recorded and reported to the Sponsor or designee within 24 hours as indicated in Section F. The Investigator submitted any updated SAE data to the Sponsor or designee within 24 hours of it being available. Investigators were not obligated to actively seek AE or SAE information after the conclusion of study participation. However, if the Investigator learns of any SAE, including a death, at any time after a subject has been discharged from the study, and he/she considers the event to be reasonably related to the study treatment or study participation, the Investigator must promptly notify the Sponsor or designee. The method of recording, evaluating, and assessing the causality of AEs and SAEs and the procedures for completing and transmitting SAE reports are provided in Section F.
An AE is any untoward medical occurrence in a patient or subject, temporally associated with the use of study treatment, whether or not considered related to the study treatment. An AE can therefore be any unfavorable and unintended sign (including an abnormal laboratory finding), symptom, or disease (new or exacerbated) temporally associated with the use of study treatment.
If an event is not an AE per the definition above, then it cannot be an SAE even if serious conditions are met (e.g., hospitalization for signs/symptoms of the disease under study). A Serious Adverse Event (SAE) is defined as any untoward medical occurrence that, at any dose: a) results in death; b) is life-threatening; c) requires inpatient hospitalization or prolongation of existing hospitalization; d) results in persistent disability/incapacity; or e) is a congenital anomaly/birth defect. The term “life-threatening” in the definition of “serious” refers to an event in which the subject was at risk of death at the time of the event. […] In general, hospitalization signifies that the subject has been detained (usually involving at least an overnight stay) at the hospital or emergency ward for observation and/or treatment that would not have been appropriate in the physician's office or outpatient setting. Complications that occur during hospitalization are AEs. If a complication prolongs hospitalization or fulfills any other serious criteria, the event is serious. When in doubt as to whether “hospitalization” occurred or was necessary, the AE should be considered serious. […] The term disability means a substantial disruption of a person's ability to conduct normal life functions.
(MedDRA; Version 23.0 or higher). Treatment-emergent adverse events (TEAEs) are AEs with onset or worsening after the start of study treatment. The AE summaries will be primarily based on TEAEs. The number and percentage of subjects with TEAEs will be summarized by treatment group, system organ class, and preferred term for all TEAEs, treatment-related TEAEs, SAEs, serious TEAEs, severe TEAEs, TEAEs of special interest, and all TEAEs leading to study drug discontinuation. All TEAEs will be further summarized by maximum severity and causality. The TEAEs of special interest will be identified in the SAP. […]

## CN[C@@]1(c2ccccc2Cl)CCCCC1=O.Cl [R(−)-ketamine, (2R)-2-(2-chlorophenyl)-2-(methylamino)cyclohexan-1-one]
30 mg (n = 33)
  Number of subjects with Any adverse events (AE): 11
  Number of subjects with Serious TEAEs resulting in treatment discontinuation: 0
  Number of subjects with TEAE with outcome of death: 0
  Number of subjects with TEAEs of COVID-19: 0
  Number of subjects with TEAEs resulting in discontinuation from study: 0
  Number of subjects with TEAEs resulting in treatment discontinuation: 0
  Number of subjects with Treatment-emergent SAE, Mild: 0
  Number of subjects with Treatment-emergent SAE, Moderate: 0
  Number of subjects with Treatment-emergent SAE, Severe: 0
  Number of subjects with Treatment-emergent adverse events (TEAE): 11
  Number of subjects with Treatment-emergent serious adverse events (SAE): 0
  Number of subjects with Treatment-related TEAEs: 10
  Number of subjects with Treatment-related and severe TEAEs: 0
  Number of subjects with Treatment-related treatment-emergent SAEs: 0
  Percent of subjects with Any adverse events (AE): (33) %
  Percent of subjects with Serious TEAEs resulting in treatment discontinuation: (0) %
  Percent of subjects with TEAE with outcome of death: (0) %
  Percent of subjects with TEAEs of COVID-19: (0) %
  Percent of subjects with TEAEs resulting in discontinuation from study: (0) %
  Percent of subjects with TEAEs resulting in treatment discontinuation: (0) %
  Percent of subjects with Treatment-emergent SAE, Mild: (0) %
  Percent of subjects with Treatment-emergent SAE, Moderate: (0) %
  Percent of subjects with Treatment-emergent SAE, Severe: (0) %
  Percent of subjects with Treatment-emergent adverse events (TEAE): (33) %
  Percent of subjects with Treatment-emergent serious adverse events (SAE): (0) %
  Percent of subjects with Treatment-related TEAEs: (30) %
  Percent of subjects with Treatment-related and severe TEAEs: (0) %
  Percent of subjects with Treatment-related treatment-emergent SAEs: (0) %
  Number of subjects with TEAE, Mild: 7
  Number of subjects with TEAE, Moderate: 4
  Number of subjects with TEAE, Severe: 0
  Percent of subjects with TEAE, Mild: (21) %
  Percent of subjects with TEAE, Moderate: (12) %
  Percent of subjects with TEAE, Severe: (0) %
30 mg or 60 mg single IV infusion
  Serious adverse events (SAEs): no serious adverse events
60 mg (n = 35)
  Number of subjects with Any adverse events (AE): 19
  Number of subjects with Serious TEAEs resulting in treatment discontinuation: 0
  Number of subjects with TEAE with outcome of death: 0
  Number of subjects with TEAEs of COVID-19: 0
  Number of subjects with TEAEs resulting in discontinuation from study: 0
  Number of subjects with TEAEs resulting in treatment discontinuation: 0
  Number of subjects with Treatment-emergent SAE, Mild: 0
  Number of subjects with Treatment-emergent SAE, Moderate: 0
  Number of subjects with Treatment-emergent SAE, Severe: 0
  Number of subjects with Treatment-emergent adverse events (TEAE): 18
  Number of subjects with Treatment-emergent serious adverse events (SAE): 0
  Number of subjects with Treatment-related TEAEs: 16
  Number of subjects with Treatment-related and severe TEAEs: 2
  Number of subjects with Treatment-related treatment-emergent SAEs: 0
  Percent of subjects with Any adverse events (AE): (54) %
  Percent of subjects with Serious TEAEs resulting in treatment discontinuation: (0) %
  Percent of subjects with TEAE with outcome of death: (0) %
  Percent of subjects with TEAEs of COVID-19: (0) %
  Percent of subjects with TEAEs resulting in discontinuation from study: (0) %
  Percent of subjects with TEAEs resulting in treatment discontinuation: (0) %
  Percent of subjects with Treatment-emergent SAE, Mild: (0) %
  Percent of subjects with Treatment-emergent SAE, Moderate: (0) %
  Percent of subjects with Treatment-emergent SAE, Severe: (0) %
  Percent of subjects with Treatment-emergent adverse events (TEAE): (51) %
  Percent of subjects with Treatment-emergent serious adverse events (SAE): (0) %
  Percent of subjects with Treatment-related TEAEs: (46) %
  Percent of subjects with Treatment-related and severe TEAEs: (6) %
  Percent of subjects with Treatment-related treatment-emergent SAEs: (0) %
  Number of subjects with TEAE, Mild: 9
  Number of subjects with TEAE, Moderate: 7
  Number of subjects with TEAE, Severe: 2
  Percent of subjects with TEAE, Mild: (26) %
  Percent of subjects with TEAE, Moderate: (20) %
  Percent of subjects with TEAE, Severe: (6) %
